# Tests used:
# Type in all cases: in vivo
# Conditions in all cases: for Germinative energy: day 3; for Germinative capacity / Number of lateral roots / Sprout height / Taproot length: day 7
# [1] = test system: tomato seeds (“Volgogradets” variety); test: Laboratory tests of DMOA and DEOA for tomato seeds
# Protocol: (§1) After that DMOA and DEOA were dissolved in dimethyl sulfoxide to give solutions of 10 g/L concentration, then water was added to give aqueous solutions of DMOA with concentrations of 5.5·10^−5 M, 5.5·10^−6 M, 5.5·10^−7 M, 5.5·10^−8 M, 5.5·10^−9 M and DEOA with concentrations of 4.8·10^−5 M, 4.8·10^−6 M, 4.8·10^−7 M, 4.8·10^−8 M, 4.8·10^−9 M.
# (§2) The obtained aqueous solutions of DMOA and DEOA were tested in the Scientific Center of Soil-Ecological Reasearch of the Federal State-Funded Educational Institution of Higher Education “Russian State Agrarian University—Moscow Agricultural Academy named after K. A. Timiryazev” (Moscow, 2015) according to the method described by T. A. Sergeeva (Method of laboratory testing of herbicides, Plant protection, 1963, No. 2, pp. 42-43). The primary laboratory screening of DMOA and DEOA was carried out on the seeds of five different crops: sunflower of “Voronezh 638” variety, soybean of “Vilana” variety, alfalfa of “Vega” variety, cucumber of “Nezhinsky” variety and tomato of “Volgogradets” variety.
# (§3) Water was used as a reference.
# (§4) A single experiment was carried out in a Petri dish. A circle of filter paper was laid at the bottom of the dish and treated with 5 ml of the work solution selected for the experiment. After that 25 seeds were uniformly laid on the surface of the treated filter paper. The Petri dish was kept at a temperature of 21-23° C. with illumination by fluorescent lamps for 7 days. The fourfold replication of the experiment within a single variant was applied.
# (§5) The experiment identified the number and percentage of normally germinated seeds on day 3 (germinative energy) and on day 7 (germinative capacity) after the beginning of the experiment. On day 7 the main biometric parameters were also measured: sprout height (mm), taproot length (mm) and number of lateral roots (pcs).
# (§6) The results were processed with the method of variance analysis with the help of STRAZ software in order to get the LSD0.05 (least significant difference between the test results on 5% significance level).
# [2] = test system: sunflower seeds (“Voronezh 638” variety); test: Laboratory tests of DMOA and DEOA for sunflower seeds
# Protocol: as §1, §2, §3, §4, §5, §6
# [3] = test system: soybean seeds (“Vilana” variety); test: Laboratory tests of DMOA and DEOA for soybean seeds
# Protocol: as §1, §2, §3, §4, §5, §6
# [4] = test system: cucumber seeds (“Nezhinsky” variety); test: Laboratory tests of DMOA and DEOA for cucumber seeds
# Protocol: as §1, §2, §3, §4, §5, §6
substance,measurement,setting,value
Sodium salt of dimethyl ester of oxaloacetic acid [DMOA],Germinative energy,[1]; 5.5 · 10^−5 M,93%
same,Germinative capacity,[1]; 5.5 · 10^−5 M,95%
same,Number of lateral roots,[1]; 5.5 · 10^−5 M,0.2 pcs.
same,Sprout height,[1]; 5.5 · 10^−5 M,25.9 mm
same,Taproot length,[1]; 5.5 · 10^−5 M,83.2 ↑ mm
same,Germinative energy,[1]; 5.5 · 10^−6 M,88%
same,Germinative capacity,[1]; 5.5 · 10^−6 M,90%
same,Number of lateral roots,[1]; 5.5 · 10^−6 M,0.5 ↑ pcs.
same,Sprout height,[1]; 5.5 · 10^−6 M,24.6 mm
same,Taproot length,[1]; 5.5 · 10^−6 M,79.8 mm
same,Germinative energy,[1]; 5.5 · 10^−7 M,88%
same,Germinative capacity,[1]; 5.5 · 10^−7 M,98 ↑ %
same,Number of lateral roots,[1]; 5.5 · 10^−7 M,0.6 ↑ pcs.
same,Sprout height,[1]; 5.5 · 10^−7 M,23.7 mm
same,Taproot length,[1]; 5.5 · 10^−7 M,74.5 mm
same,Germinative energy,[1]; 5.5 · 10^−8 M,98 ↑ %
same,Germinative capacity,[1]; 5.5 · 10^−8 M,98 ↑ %
same,Number of lateral roots,[1]; 5.5 · 10^−8 M,0.1 pcs.
same,Sprout height,[1]; 5.5 · 10^−8 M,23.4 mm
same,Taproot length,[1]; 5.5 · 10^−8 M,83.6 ↑ mm
same,Germinative energy,[1]; 5.5 · 10^−9 M,88%
same,Germinative capacity,[1]; 5.5 · 10^−9 M,90%
same,Number of lateral roots,[1]; 5.5 · 10^−9 M,0.7 ↑ pcs.
same,Sprout height,[1]; 5.5 · 10^−9 M,24.4 mm
same,Taproot length,[1]; 5.5 · 10^−9 M,86.9 ↑↑ mm
same,Germinative energy,[2]; 5.5 · 10^−5 M,80%
same,Germinative capacity,[2]; 5.5 · 10^−5 M,90%
same,Number of lateral roots,[2]; 5.5 · 10^−5 M,9.7 pcs.
same,Sprout height,[2]; 5.5 · 10^−5 M,23.8 mm
same,Taproot length,[2]; 5.5 · 10^−5 M,35.2 mm
same,Germinative energy,[2]; 5.5 · 10^−6 M,83%
same,Germinative capacity,[2]; 5.5 · 10^−6 M,93%
same,Number of lateral roots,[2]; 5.5 · 10^−6 M,8.5 pcs.
same,Sprout height,[2]; 5.5 · 10^−6 M,23.0 mm
same,Taproot length,[2]; 5.5 · 10^−6 M,46.4 ↑ mm
same,Germinative energy,[2]; 5.5 · 10^−7 M,90 ↑ %
same,Germinative capacity,[2]; 5.5 · 10^−7 M,93%
same,Number of lateral roots,[2]; 5.5 · 10^−7 M,8.2 pcs.
same,Sprout height,[2]; 5.5 · 10^−7 M,26.9 ↑ mm
same,Taproot length,[2]; 5.5 · 10^−7 M,29.8 ↓ mm
same,Germinative energy,[2]; 5.5 · 10^−8 M,93 ↑ %
same,Germinative capacity,[2]; 5.5 · 10^−8 M,91%
same,Number of lateral roots,[2]; 5.5 · 10^−8 M,7.8 pcs.
same,Sprout height,[2]; 5.5 · 10^−8 M,28.8 ↑↑ mm
same,Taproot length,[2]; 5.5 · 10^−8 M,38.1 mm
same,Germinative energy,[2]; 5.5 · 10^−9 M,87%
same,Germinative capacity,[2]; 5.5 · 10^−9 M,93%
same,Number of lateral roots,[2]; 5.5 · 10^−9 M,11.6 ↑ pcs.
same,Sprout height,[2]; 5.5 · 10^−9 M,27.8 mm
same,Taproot length,[2]; 5.5 · 10^−9 M,51.9 ↑ mm
same,Germinative energy,[3]; 5.5 · 10^−5 M,78%
same,Germinative capacity,[3]; 5.5 · 10^−5 M,89%
same,Number of lateral roots,[3]; 5.5 · 10^−5 M,0.2 pcs.
same,Sprout height,[3]; 5.5 · 10^−5 M,16.0 mm
same,Taproot length,[3]; 5.5 · 10^−5 M,35.5 mm
same,Germinative energy,[3]; 5.5 · 10^−6 M,82%
same,Germinative capacity,[3]; 5.5 · 10^−6 M,97%
same,Number of lateral roots,[3]; 5.5 · 10^−6 M,0.0 pcs.
same,Sprout height,[3]; 5.5 · 10^−6 M,19.0 ↑ mm
same,Taproot length,[3]; 5.5 · 10^−6 M,37.6 mm
same,Germinative energy,[3]; 5.5 · 10^−7 M,65%
same,Germinative capacity,[3]; 5.5 · 10^−7 M,90%
same,Number of lateral roots,[3]; 5.5 · 10^−7 M,0.0 pcs.
same,Sprout height,[3]; 5.5 · 10^−7 M,19.0 ↑ mm
same,Taproot length,[3]; 5.5 · 10^−7 M,39.5 mm
same,Germinative energy,[3]; 5.5 · 10^−8 M,77%
same,Germinative capacity,[3]; 5.5 · 10^−8 M,87%
same,Number of lateral roots,[3]; 5.5 · 10^−8 M,0.0 pcs.
same,Sprout height,[3]; 5.5 · 10^−8 M,19.5 ↑↑ mm
same,Taproot length,[3]; 5.5 · 10^−8 M,38.4 mm
same,Germinative energy,[3]; 5.5 · 10^−9 M,72%
same,Germinative capacity,[3]; 5.5 · 10^−9 M,83%
same,Number of lateral roots,[3]; 5.5 · 10^−9 M,0.0 pcs.
same,Sprout height,[3]; 5.5 · 10^−9 M,17.8 ↑ mm
same,Taproot length,[3]; 5.5 · 10^−9 M,37.0 mm
same,Germinative energy,[4]; 5.5 · 10^−5 M,86%
same,Germinative capacity,[4]; 5.5 · 10^−5 M,82%
same,Number of lateral roots,[4]; 5.5 · 10^−5 M,11.9 pcs.
same,Sprout height,[4]; 5.5 · 10^−5 M,19.0 mm
same,Taproot length,[4]; 5.5 · 10^−5 M,74.2 mm
same,Germinative energy,[4]; 5.5 · 10^−6 M,88%
same,Germinative capacity,[4]; 5.5 · 10^−6 M,91%
same,Number of lateral roots,[4]; 5.5 · 10^−6 M,12.3 pcs.
same,Sprout height,[4]; 5.5 · 10^−6 M,15.9 mm
same,Taproot length,[4]; 5.5 · 10^−6 M,75.6 mm
same,Germinative energy,[4]; 5.5 · 10^−7 M,85%
same,Germinative capacity,[4]; 5.5 · 10^−7 M,94%
same,Number of lateral roots,[4]; 5.5 · 10^−7 M,13.7 pcs.
same,Sprout height,[4]; 5.5 · 10^−7 M,17.7 mm
same,Taproot length,[4]; 5.5 · 10^−7 M,78.1 mm
same,Germinative energy,[4]; 5.5 · 10^−8 M,86%
same,Germinative capacity,[4]; 5.5 · 10^−8 M,78%
same,Number of lateral roots,[4]; 5.5 · 10^−8 M,13.5 pcs.
same,Sprout height,[4]; 5.5 · 10^−8 M,17.1 mm
same,Taproot length,[4]; 5.5 · 10^−8 M,74.8 mm
same,Germinative energy,[4]; 5.5 · 10^−9 M,82%
same,Germinative capacity,[4]; 5.5 · 10^−9 M,95%
same,Number of lateral roots,[4]; 5.5 · 10^−9 M,12.9 pcs.
same,Sprout height,[4]; 5.5 · 10^−9 M,18.2 mm
same,Taproot length,[4]; 5.5 · 10^−9 M,82.5 mm
